Measurements reported in the NIST ThermoML archive (doi:10.1021/je900903w).

Assay: mn = molality of the nth substance listed, in mol/kg
Conditions: 101 kPa, Liquid; for molar conductivity: Alternating current cell with electrodes

O=C[O-].[K+] [potassium formate] + O
Conditions | mass density, 298.15 K [kg/m3] | molar conductivity, 278.15 K [S·m2/mol] | molar conductivity, 283.15 K [S·m2/mol] | molar conductivity, 288.15 K [S·m2/mol] | molar conductivity, 293.15 K [S·m2/mol] | molar conductivity, 298.15 K [S·m2/mol] | molar conductivity, 303.15 K [S·m2/mol] | molar conductivity, 308.15 K [S·m2/mol] | molar conductivity, 313.15 K [S·m2/mol]
m1 = 0.0003498 | – | 0.007906 | 0.009019 | 0.01018 | 0.01138 | 0.0126 | 0.01387 | 0.01516 | 0.01649
m1 = 0.0006599 | – | 0.007826 | 0.008931 | 0.01008 | 0.01128 | 0.01251 | 0.01377 | 0.01502 | 0.01632
m1 = 0.001026 | – | 0.007789 | 0.008888 | 0.01003 | 0.01121 | 0.01245 | 0.01371 | 0.015 | 0.01628
m1 = 0.001412 | – | 0.007752 | 0.008844 | 0.009984 | 0.01117 | 0.01239 | 0.01365 | 0.01494 | 0.01622
m1 = 0.001766 | – | 0.007701 | 0.008787 | 0.009919 | 0.0111 | 0.01231 | 0.01356 | 0.01485 | 0.01614
m1 = 0.002217 | – | 0.007674 | 0.008755 | 0.009886 | 0.01106 | 0.01226 | 0.01351 | 0.0148 | 0.01608
m1 = 0.002823 | – | 0.007653 | 0.008729 | 0.009852 | 0.01102 | 0.01223 | 0.01348 | 0.01476 | 0.01606
m1 = 0.003432 | – | 0.007632 | 0.008706 | 0.009826 | 0.01099 | 0.0122 | 0.01344 | 0.01472 | 0.01601
m1 = 0.00406 | – | 0.007611 | 0.008682 | 0.0098 | 0.01097 | 0.01217 | 0.01341 | 0.01468 | 0.01596
m1 = 0.004815 | – | 0.007596 | 0.008665 | 0.00978 | 0.01094 | 0.01214 | 0.01338 | 0.01465 | 0.01593
m1 = 0.005831 | 997.346 | 0.007573 | 0.008637 | 0.009748 | 0.01091 | 0.0121 | 0.01333 | 0.0146 | 0.01587
m1 = 0.1219 | 1002.91 | – | – | – | – | – | – | – | –

O=CO [formic acid] + O
Conditions | mass density, 298.15 K [kg/m3] | molar conductivity, 278.15 K [S·m2/mol] | molar conductivity, 283.15 K [S·m2/mol] | molar conductivity, 288.15 K [S·m2/mol] | molar conductivity, 293.15 K [S·m2/mol] | molar conductivity, 298.15 K [S·m2/mol] | molar conductivity, 303.15 K [S·m2/mol] | molar conductivity, 308.15 K [S·m2/mol] | molar conductivity, 313.15 K [S·m2/mol]
m1 = 0.0002709 | – | 0.0149 | 0.0165 | 0.018 | 0.01947 | 0.02084 | 0.02214 | 0.0233 | 0.0242
m1 = 0.0005657 | – | 0.0113 | 0.0125 | 0.0138 | 0.0149 | 0.0161 | 0.0171 | 0.018 | 0.0189
m1 = 0.0008298 | – | 0.00971 | 0.0108 | 0.0119 | 0.0129 | 0.0139 | 0.0149 | 0.0157 | 0.0164
m1 = 0.001094 | – | 0.00867 | 0.00965 | 0.0106 | 0.0115 | 0.0124 | 0.0133 | 0.0141 | 0.0147
m1 = 0.001442 | – | 0.00773 | 0.00862 | 0.00948 | 0.0103 | 0.0111 | 0.0119 | 0.0126 | 0.0132
m1 = 0.001825 | – | 0.0069 | 0.00768 | 0.00845 | 0.0092 | 0.00991 | 0.0106 | 0.0112 | 0.0117
m1 = 0.002222 | – | 0.00636 | 0.00709 | 0.00781 | 0.0085 | 0.00917 | 0.00981 | 0.0104 | 0.0109
m1 = 0.002648 | – | 0.00593 | 0.00661 | 0.00727 | 0.0079 | 0.00851 | 0.00907 | 0.00959 | 0.0101
m1 = 0.003208 | – | 0.00548 | 0.00611 | 0.00673 | 0.00733 | 0.00791 | 0.00845 | 0.00894 | 0.00939
m1 = 0.003957 | – | 0.00505 | 0.00563 | 0.0062 | 0.00675 | 0.00729 | 0.00779 | 0.00824 | 0.00866
m1 = 0.004898 | 997.113 | 0.00463 | 0.00517 | 0.0057 | 0.00621 | 0.0067 | 0.00717 | 0.0076 | 0.00799
m1 = 0.1291 | 998.53 | – | – | – | – | – | – | – | –
